The IC50 is the midpoint of a concentration-inhibition curve. Read a low IC50 as higher potency.

The assay addresses T1, arylamine-N-acetyltransferase (TBNAT) (Mycobacterium tuberculosis, UniProt P9WJI5).
T1 construct: gene nat
T1 sequence (P9WJI5 1-283): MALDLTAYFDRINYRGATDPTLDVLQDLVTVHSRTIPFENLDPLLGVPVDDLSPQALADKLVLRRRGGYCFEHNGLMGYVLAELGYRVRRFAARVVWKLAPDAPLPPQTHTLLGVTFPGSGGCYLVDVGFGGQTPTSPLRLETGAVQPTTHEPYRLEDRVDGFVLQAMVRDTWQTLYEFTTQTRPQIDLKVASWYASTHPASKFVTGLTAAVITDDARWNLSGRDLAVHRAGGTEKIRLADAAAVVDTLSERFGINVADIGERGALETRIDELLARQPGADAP
The experiment in a line: biochemical.

The molecule `CC(=O)O[C@H]1CC(C)(C)C(=C=C/C(C)=C/C=C/C(C)=C/C=C/C=C(C)/C=C/C=C(\C)C(=O)C[C@@]23O[C@]2(C)C[C@@H](O)CC3(C)C)[C@](C)(O)C1` [fucoxanthin] gave an IC50 of 4.8 ± 0.4 µM.

Molecule `NNC(=O)c1ccncc1` [isoniazid] had an IC50 of 5.9 ± 0.2 µM. The IC50 values of the last two molecules are within 1.5-fold of each other.

For the origin of these results see PMC6891772 (Marine Drugs, 2019).
